Measured values taken from EP4257135A1, “BENZIMIDAZOLE DERIVATIVES FOR PULMONARY ARTERIAL HYPERTENSION” (Justus-Liebig-Universität Gießen, priority 2022, dated 2023).

Tested on: PAH-PCLS
Experiment: Ex vivo precision-cut lung slices (PCLS) from PAH lungs, medial wall thickness
Type: cell-based
Conditions: PCLS from human PAH lungs; 200 µM on days 2 and 6, fixed day 10; vessels 20-150 µm; vs DMSO
Text: Lungengewebeproben wurden von Patienten mit IPAH entnommen. Aus den mit 3% niedrigschmelzender Agarose gefüllten Lungenproben von Patienten mit IPAH wurden mit einem Vibratom (Leica Biosystems) Gewebeschnitte (400 µm dick) angefertigt. Die Lungengewebeschnitte wurden in DMEM-GlutaMAX-Medium mit 10 % fetalem Kälberserum, 1 % Penicillin/Streptomycin und 0,1 % Amphotericin B (Thermo Fisher Scientific) kultiviert, und die Behandlung wurde am zweiten Tag eingeleitet. Die Substanz SGC-CBP30 wurde in einer Konzentration von 200 µM an den Tagen 2 und 6 verabreicht. Am 10. Tag wurde das Gewebe in 4% Paraformaldehyd (Roti-Histofix; Carl Roth) fixiert und in Paraffin eingebettet. Die mediale Wanddicke wurde in allen Gefäßen mit einer Größe von 20-150 µm in den Lungenschnitten gemessen.
Das therapeutische Potenzial der EP300/CREBBP-Hemmung durch die Substanz SGC-CBP30 wurde untersucht. Dazu wurde die Wirksamkeit auf PAH-FBs und PAH-SMCs geprüft, die aus den Lungenarterien von menschlichen PAH-Patienten und aus den Lungenarterien von Ratten mit MCT-PAH (Rattenmodell mit Monocrotalin) isoliert wurden. […] Die Wirkung der EP300-Hemmung auf das vaskuläre Remodelling wurde durch Quantifizierung der prozentualen medialen Wanddicke in den mit der Substanz SGC-CBP30 inkubierten PCLS im Vergleich zu den mit DMSO inkubierten Kontrollen bewertet. […]

Structure (SMILES): COc1ccc(CCc2nc3cc(-c4c(C)noc4C)ccc3n2C[C@H](C)N2CCOCC2)cc1Cl [SGC-CBP30, 2-[2-(3-Chloro-4-methoxyphenyl)ethyl]-5-(3,5-dimethyl-1,2-oxazol-4-yl)-1-[(S)-2-(morpholin-4-yl)propyl]-1H-benzimidazole]
- mediale Wanddicke der umgestalteten PAs: signifikante Verringerung
